From patent US20230158152A1, “PROTEOLYSIS REGULATOR AND METHOD FOR USING SAME” (MEDSHINE DISCOVERY INC., priority 2020, published 2023)
Structures can show the parent of a compound that is named as a salt. Blank lines part the entries; values can stand above or below the compound they belong to.

What was measured:
[1] = system: human acute myeloid leukemia cell MV4-11; assay: Anti-proliferative effect in human acute myeloid leukemia cell MV4-11 (CellTiter-Glo); assay type: cell-based; settings: MV4-11, 96 h, cell proliferation, incubated for 4 days
Protocol: In this assay, the inhibitory effect of assay compounds on cell proliferation in human acute myeloid leukemia cell MV4-11 was detected by ATP fluorescence activity detection (CellTiter-Glo).
(§1) (1) Promega CellTiter-Glo luminescent cell viability assay kit (Promega-G7573). (2) 2104 EnVision® plate reader, PerkinElmer.
(§2) The tumor cell line was cultured in a 37° C., 5% CO2 incubator according to the above-mentioned culture conditions. Cells were passaged periodically, and cells in logarithmic growth phase were used for plating.
(1). Cells were stained with trypan blue and viable cells were counted; (2). The cell concentration was adjusted to an appropriate concentration; (3). 90 μL of cell suspension was added to each well of the culture plate, and each well contained 6000 cells. In the blank group and other wells, no cells were inoculated, and only 90 μL of culture medium was added; (4). The plate was incubated in an incubator at 37° C., 5% CO2, and 100% relative humidity overnight.
(1) Formulation of 10× drug solution: A sterile round bottom 96-well plate was used, and the concentration of mother solutions of WX007, WX008, WX009, WX010, WX011 and WX012 was 10 mM. 5 μL of compound was added to the first well with 5 μL of 1640 medium, and mixed well to obtain a concentration of 5 mM. 5 μL of compound from the first well was added to the third well containing 45 μL of 1640 medium and mixed well to obtain a concentration of 500 μM. 5 μL of compound from the third well was added to the fourth well containing 45 μL of 1640 medium and mixed well to obtain a concentration of 50 μM. 20 μL of compound from the fourth well was added to the fifth well containing 180 μL of 1640 medium and mixed well to obtain 5 μM mother solution. Another sterile round bottom 96-well plate was used, and 60 μL of 5 μM compound was added to the first well. 30 μL of 5 μM compound was added to the second well with 60 μL of 1640 medium, and so forth. Compounds were serially diluted 3-fold to obtain a total of 9 concentrations. To the blank control was added an equal volume of DMSO in the same dilution way.
(2) Formulation of drug solution with the final concentration: 10 μL of the 10× drug solution as prepared above was added to 90 μL of culture medium in triplicate. To the control group was added an equal volume of DMSO solution, and the cell plate was flicked, so that the solution was mixed well. To the blank group was added 10 μL of 1640 medium. The plate was gently taped, so that the solution was mixed well. The plate was placed back in 37° C., 5% CO2 incubator and incubated for 4 days.
(1) Formulation of the drug solution: A sterile round-bottom 96-well plate was used, and the stock concentration of each compound was 10 mM. 2 μL of compound in 18 μL of DMSO was added to the first well and the mixture was mixed well to obtain a concentration of 1 mM; 10 μL of compound from the first well was added to the third well containing 90 μL of 1640 medium and the mixture was mixed well to obtain a concentration of 100 μM;
(2) For WX058, WX059, WX060 and WX042, 12 μL of solution from the third well obtained above was added to the fourth well containing 108 μL of 1640 medium and the mixture was mixed well to obtain a drug with 10 μM maximum concentration.
(3) Another new sterile round bottom 96-well plate was used, and 60 μL of each drug with the maximum concentration in step (2) was placed in the first well. 60 μL of solution from the first well was added to the second well with 60 μL 1640 medium, and so forth. Compounds were serially diluted 2-fold to obtain a total of 9 concentrations.
(4) For the blank control group, an equal volume of DMSO was added in the same dilution way.
(5) 10 μL of the solution with gradient drug concentrations prepared as above was added to 90 μL of culture medium in triplicate. For the control group, an equal volume of DMSO solution was added. The cell plate was gently tapped, so that the solution was mixed well. […]

[2] = biological target: T1, Recombinant human-derived ALK (Homo sapiens, UniProt Q9UM73); assay: Inhibitory activity of compounds against ALK kinase (time-resolved fluorescence resonance energy transfer); assay type: biochemical; settings: 30 μM ATP, 50 nM ULight-poly GT peptide
T1 construct: BAG10812.1; 1058-1620 (terminal) amino acids; GST (N); made in house
T1 sequence (Q9UM73 1058-1620): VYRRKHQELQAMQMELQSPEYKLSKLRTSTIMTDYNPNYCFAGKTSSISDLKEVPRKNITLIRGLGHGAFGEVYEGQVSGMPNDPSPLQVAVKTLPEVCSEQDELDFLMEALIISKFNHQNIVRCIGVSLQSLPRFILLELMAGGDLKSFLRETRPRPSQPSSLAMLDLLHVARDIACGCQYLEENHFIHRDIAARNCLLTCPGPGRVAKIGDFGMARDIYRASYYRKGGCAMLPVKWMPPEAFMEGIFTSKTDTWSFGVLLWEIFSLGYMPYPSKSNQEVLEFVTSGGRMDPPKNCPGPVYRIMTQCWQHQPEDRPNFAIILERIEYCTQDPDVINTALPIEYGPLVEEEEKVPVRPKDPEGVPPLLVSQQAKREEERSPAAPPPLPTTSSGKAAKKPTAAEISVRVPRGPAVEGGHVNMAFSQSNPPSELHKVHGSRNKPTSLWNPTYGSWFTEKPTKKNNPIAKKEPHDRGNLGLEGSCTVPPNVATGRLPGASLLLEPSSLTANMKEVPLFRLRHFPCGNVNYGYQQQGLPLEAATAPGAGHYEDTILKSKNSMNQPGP
Protocol: The inhibitory activity of the compounds on ALK kinase was detected by time-resolved fluorescence resonance energy transfer method, that is, the ratio of fluorescence signals at 665 nm/615 nm was used to represent the activity of the enzyme.
Assay buffer solution: 50 mM 2-[4-(2-hydroxyethyl)-1-piperazinyl]ethanesulfonic acid buffer solution (HEPES) (pH 7.5), 10 mM MgCl2, 1 mM EDTA 0.01%, polyoxyethylene lauryl ether (Brij 35), 2 mM dithiothreitol (DTT).
Enzyme: Recombinant human-derived ALK (gene accession number: BAG10812.1; 1058-1620 (terminal) amino acids) was expressed with a N-terminal GST fusion protein (90 kDa) using a baculovirus expression system.
Enzyme substrate: 50 nM ULight-poly GT polypeptide.
Detection: europium-labeled anti-phosphotyrosine (PT66) antibody.
1. Compounds dissolved in 100% DMSO were added to 384-well plates by acoustic technique; 2. Recombinant human-derived ALK enzyme and enzyme substrate (50 nM ULight-poly GT peptide) or zymolyte (30 μM ATP) were dissolved in freshly prepared assay buffer; 3. The above ALK enzyme and enzyme substrate in the buffer solution were transferred to reaction wells; 4. Then, the zymolyte in the buffer solution was added to the above reaction wells to initiate the reaction; 5. The plate was incubated at room temperature for 1 hour; 6. The detection mixture (PT66 antibody and EDTA) was added to terminate the reaction, and the mixture was incubated at room temperature for 60 minutes; 7. Then, the plate was read using a microplate reader to obtain the ratio of fluorescence signals at 665 nm/615 nm.
Data analysis: Emission ratio (665 nm/615 nm) in the original data was involved in the calculation of the inhibition rate. The concentration and inhibition rate were analyzed using XLfit software 205 mode (4 Parameters Logistic Model) to obtain IC50 value and curve.

[3] = system: human lung cancer cell NCI-H2228; assay: Anti-proliferative effect in human lung cancer cell NCI-H2228 (CellTiter-Glo); assay type: cell-based; settings: NCI-H2228, 72 h, cell proliferation, cultured for 3 days
Protocol: In this assay, the inhibitory effect of assay compounds on cell proliferation was assayed in human lung cancer cell NCI-H2228.
as §1, §2
(1). Cells were stained with trypan blue and viable cells were counted; (2). The cell concentration was adjusted to an appropriate concentration;
(3). 90 μL of cell suspension was added to each well of the culture plate as shown in the table above, and cell-free culture medium was added to the blank control well; (4). The plate was incubated in an incubator at 37° C., 5% CO2, and 100% relative humidity overnight.
Preparation of a mother solution storage plate with 400 times the starting compound concentration: the compounds were diluted serially with DMSO from the highest concentration to the lowest concentration. The plate was prepared freshly every time it was used.
(1). 78 μL of cell culture medium was added to a 96-well plate with a V-shaped bottom. […]
(1). […] The culture plate was left at room temperature for 10 minutes to stabilize the luminescence signal; (9). The luminescent signal was detected on a 2104 EnVision plate reader. […]

[4] = system: human lung cancer NCI-H2228 cells subcutaneous xenograft tumor; assay: In vivo pharmacodynamic study in subcutaneous xenograft tumor NOD SCID mouse model of human lung cancer NCI-H2228 cells; design: species or system NOD SCID mice; settings: 50 mg/kg subcutaneous injection once a day
Protocol: Human lung cancer cell NCI-H2228 (ATCC® CRL-5935™) was cultured in vitro in an adherent monolayer in RPMI 1640 medium supplemented with 10% fetal bovine serum, 100 U/mL penicillin and 100 μg/mL streptomycin in an incubator at 37° C. and 5% CO2. Cells were passaged by routine digestion with trypsin-EDTA twice a week. When the cell saturation was 80%-90% and the number met the requirement, the cells are collected, counted, and inoculated.
NOD SCID mice, female, 6-8 weeks old, weighing 18-22 grams.
0.2 mL (10×10^6 cells) of NCI-H2228 cells (with matrigel, v/v 1:1) were subcutaneously inoculated into the right back of each mouse. The administration by group was started when the average tumor volume reached 171 mm^3. One administration cycle comprised seven days, with administration once a day. The assay compounds were administered by subcutaneous injection for a total of four cycles. The subcutaneous injection doses of the assay compounds WX001 and WX002 were both 50 mg/kg. Tumor diameter was measured twice a week with a vernier caliper, and tumor volume was measured in cubic millimeters and calculated by the following formula: V=0.5a×b^2, where a and b are the long and short diameters of the tumor, respectively. The tumor-inhibitory efficacy of the assay compounds was evaluated by using TGI (%). TGI (%) reflects a tumor growth inhibition rate. TGI (%)=[1−(Average tumor volume at the end of administration of a treatment group−Average tumor volume at the beginning of administration of the treatment group)/(Average tumor volume at the end of treatment of a vehicle control group−Average tumor volume at the beginning of treatment of the vehicle control group)]×100%.

Compound: Cc1sc2c(c1C)C(c1ccc(Cl)cc1)=N[C@@H](CC(=O)NCCCCOc1ccc3occ(C4CCC(=O)NC4=O)c3c1)c1nnc(C)n1-2 (some centres unmarked) [WX060]
IC50 [1]: 17 nM

Compound: Cc1cc(Nc2ncc(Cl)c(Nc3ccccc3S(=O)(=O)C(C)C)n2)c(OC(C)C)cc1C1CCN(C(=O)COc2ccc3occ(C4CCC(=O)NC4=O)c3c2)CC1 (centres unmarked) [WX003]
IC50 [2]: 33.8 nM

Compound: Cc1sc2c(c1C)C(c1ccc(Cl)cc1)=N[C@@H](CC(=O)NCCCOc1ccc3occ(C4CCC(=O)NC4=O)c3c1)c1nnc(C)n1-2 (some centres unmarked) [WX058]
IC50 [1]: 11.3 nM

Compound: Cc1sc2c(c1C)C(c1ccc(Cl)cc1)=N[C@@H](CC(=O)NCCCNC(=O)COc1ccc3occ(C4CCC(=O)NC4=O)c3c1)c1nnc(C)n1-2 (some centres unmarked) [WX042]
IC50 [1]: 35.4 nM

Compound: Cc1sc2c(c1C)C(c1ccc(Cl)cc1)=N[C@@H](CC(=O)NCCOc1ccc3occ(C4CCC(=O)NC4=O)c3c1)c1nnc(C)n1-2 (some centres unmarked) [WX059]
IC50 [1]: 16.6 nM

Compound: Cc1cc(Nc2ncc(Cl)c(Nc3ccccc3S(=O)(=O)C(C)C)n2)c(OC(C)C)cc1C1CCN(CC(=O)NCc2ccc3c(ccc4occ(C5CCC(=O)NC5=O)c43)c2)CC1 (centres unmarked) [WX002 hydrochloride]
IC50 [2]: 15.6 nM
IC50 [3]: 160 nM
Tumor volume (Day 1) ([4]; Day 1): 172 ± 11 mm^3
TGI (Day 28) ([4]; Day 28): 100.38%
Tumor volume (Day 28) ([4]; Day 28): 169 ± 30 mm^3

Compound: Cc1cc(Nc2ncc(Cl)c(Nc3ccccc3S(=O)(=O)C(C)C)n2)c(OC(C)C)cc1C1CCN(CCOc2ccc3occ(C4CCC(=O)NC4=O)c3c2)CC1 (centres unmarked) [WX006]
IC50 [2]: 12.2 nM

Next, values leading:

IC50 [1]: 61.3 nM
Compound: Cc1sc2c(c1C)C(c1ccc(Cl)cc1)=N[C@@H](CC(=O)NCCNc1ccc3c(ccc4occ(C5CCC(=O)NC5=O)c43)c1)c1nnc(C)n1-2 (some centres unmarked) [WX010]

IC50 [1]: 202 nM
Compound: Cc1sc2c(c1C)C(c1ccc(Cl)cc1)=N[C@@H](CC(=O)NCCOc1ccc3c(ccc4occ(C5CCC(=O)NC5=O)c43)c1)c1nnc(C)n1-2 (some centres unmarked) [WX007]

IC50 [1]: 51.7 nM
Compound: Cc1sc2c(c1C)C(c1ccc(Cl)cc1)=N[C@@H](CC(=O)NCCCCCCNc1ccc3c(ccc4occ(C5CCC(=O)NC5=O)c43)c1)c1nnc(C)n1-2 (some centres unmarked) [WX009]

IC50 [1]: 70.6 nM
Compound: Cc1sc2c(c1C)C(c1ccc(Cl)cc1)=N[C@@H](CC(=O)NCCCCCCOc1ccc3c(ccc4occ(C5CCC(=O)NC5=O)c43)c1)c1nnc(C)n1-2 (some centres unmarked) [WX012]

IC50 [1]: 73.8 nM
Compound: Cc1sc2c(c1C)C(c1ccc(Cl)cc1)=N[C@@H](CC(=O)NCCOCCOc1ccc3c(ccc4occ(C5CCC(=O)NC5=O)c43)c1)c1nnc(C)n1-2 (some centres unmarked) [WX011]

IC50 [1]: 22.5 nM
Compound: Cc1sc2c(c1C)C(c1ccc(Cl)cc1)=N[C@@H](CC(=O)NCCOCCOCCOc1ccc3c(ccc4occ(C5CCC(=O)NC5=O)c43)c1)c1nnc(C)n1-2 (some centres unmarked) [WX008]
